The text below walks through data of patent publication US20260294890A1, “LONG-TERM PREVENTION AND/OR TREATMENT OF A DISEASE BY SLO-1 INHIBITORS” (Elanco Animal Health GmbH, priority 2023, published 2026).

As usually defined, the clearance is the volume of plasma or blood freed of the substance per unit of time. A lower clearance goes with inefficient removal.

A short description of data set [1]: Assay 1: half-life and plasma clearance upon intravenous administration to beagle dogs. Type of data set: in vivo. As to conditions: dog, iv dose up to 0.3 mg/kg, plasma, geometric mean, Phoenix PK/PD (Example 1: internal tool). The method, then: Assay 1: Determination of Half-Life and Plasma Clearance of Compounds of the Invention Upon Administration to Beagle Dogs
Compounds according to the invention were administered as an intravenous (iv) dose (up to 0.3 mg/kg) to beagle dogs (minimum n=3). Blood samples were collected from these beagle dogs up to 168 h after intravenous administration and up to 3024 h after subcutaneous administration. A portion of each whole blood sample was processed to plasma. Compound concentrations were determined in plasma using LCMS/MS. Phoenix™ Pharmacokinetic and Pharmacodynamic (PK/PD) was used to determine half-life and plasma clearance values. Only for Example 1, an internal tool available to the inventors was used to determine the half-life and plasma clearance values.

Data set [2] can be described thus: log P by HPLC on reversed phase columns (LC-MS Method 0). The format is physicochemical. As to conditions: 0.1% formic acid/acetonitrile; Method 0, acidic range, 0.1% formic acid in water and acetonitrile; read-out: log P (HCOOH). The method, then: Measurement of log P values was performed according to EEC directive 79/831 Annex V.A8 by HPLC (High Performance Liquid Chromatography) on reversed phase columns with the following methods, instrument(s): Agilent 1100 LC system, Agilent MSD system, HTS PAL; Waters IClass Acquity UPLC, SQD2 (MS), PDA (UV). • ^[a]log P value is determined by measurement of LC-UV, in an acidic range, with 0.1% formic acid in water and acetonitrile as eluent (linear gradient from 10% acetonitrile to 95% acetonitrile). • ^[b]log P value is determined by measurement of LC-UV, in a neutral range, with 0.001 molar ammonium acetate solution in water and acetonitrile as eluent (linear gradient from 10% acetonitrile to 95% acetonitrile).
Calibration was done with straight-chain alkan-2-ones (with 3 to 16 carbon atoms) with known log P values (measurement of log P values using retention times with linear interpolation between successive alkanones). Lambda-max-values were determined using UV-spectra from 200 nm to 400 nm and the peak values of the chromatographic signals.

Regarding `O=C(N[C@H]1CCOc2ccccc21)c1cnc2c(-c3cc(F)cc(F)c3F)c(F)ccc2c1N1CC(F)C1` [Example 7, N-[(4S)-3,4-Dihydro-2H-chromen-4-yl]-7-fluoro-4-(3-fluoroazetidin-1-yl)-8-(2,3,5-trifluorophenyl)quinoline-3-carboxamide], in data set [1], the clearance is 0.833 mL/min/kg. For the same compound, in data set [1] (read-out: Half-life (h/Form) iv, geometric mean (converted)), the half-life was 124 h. Besides, in data set [2], the chromatographic logP stood at 1.93.
